Results published in US8399689B2, “Chrysophaentin antimicrobial compounds that inhibit FtsZ protein” (The United States of America, as represented by the …, priority 2010, dated 2013).

Experiments:
recombinant E. coli FtsZ = recombinant E. coli FtsZ (Escherichia coli, UniProt P0A9A6); test: Saturation Transfer Difference (STD) NMR binding to FtsZ
Procedure: Saturation transfer difference (STD) NMR experiments were recorded with the carrier set at −1 or 12 ppm for on-resonance irradiation and at 40 ppm for off-resonance irradiation. […] Selective protein saturation (2 s) was accomplished by using a train of 50 ms Gauss-shaped pulses, each separated by a 1 ms delay, at an experimentally determined optimal power (49 dB on our probe); a T1ρ filter (30 ms) was incorporated to suppress protein resonances. Experiments were recorded using a minimum of 1024 scans and 32K points. On- and off-resonance spectra were processed independently, and subtracted to provide a difference spectrum.
Saturation Transfer Difference (STD) NMR is an NMR technique that provides atomic level detail of the epitope used by a small molecule ligand to bind its macromolecular (protein) receptor. […] Spectra of were recorded at 298 K with the carrier set at −1 or 12 ppm for on-resonance irradiation and 50 ppm for off-resonance irradiation. Selective protein saturation (duration ranging from 1 to 5 s) was accomplished using a train of 50 ms Gauss-shaped pulses, each separated by a 1 ms delay, at an experimentally determined optimal power (49 dB); a T1ρ filter (30 ms) was incorporated to suppress protein resonances. A minimum of 512 scans and 4000 points were used to ensure high quality data with good signal-to-noise. On- and off-resonance spectra were processed independently, and subtracted to provide a difference spectrum. […] STD enhancements were measured by integrating difference spectra where the peaks showing the strongest enhancements relative to the control spectra were used to normalize all non-overlapped peaks in the difference spectra.

[1] = test system: Gram-positive pathogens (S. aureus, B. subtilis, E. faecium, MRSA, MDRSA, VREF); test: Disk diffusion and microbroth dilution assays, strains taken together; type: cell-based
From the text: Solid agar disk diffusion and microbroth dilution assays were used to evaluate the antimicrobial activities of compounds 1, hexaacetate 1a, and 4-8 toward clinically relevant, Gram-positive pathogens, including the drug-susceptible bacteria Staphylococcus aureus, Bacillus subtilis and Enterococcus faecium, and drug-resistant strains methicillin-resistant S. aureus (MRSA), multidrug-resistant S. aureus (MDRSA), and vancomycin-resistant E. faecium (VREF) (see Table 7, Example 2).
Compounds 1-8 were tested for antimicrobial activity against Staphylococcus aureus (SA, ATCC 25923), methicillin-resistant S. aureus (MRSA, ATCC BAA-41), multidrug-resistant S. aureus (MDRSA, ATCC BAA-44), Enterococcus faecium (EF, ATCC 49032), vancomycin-resistant E. Faecium (VRE, ATCC 700221), and Bacillus subtilis (ATCC 49343) using a modified disk diffusion assay and microbroth liquid dilution assays. For disk diffusion assays, agar plates seeded with suspensions of bacteria were prepared by adding 500 μL of a 24 h culture of bacteria to 100 mL of autoclaved Mueller Hinton II agar and cooled to 55° C. Seeded liquid agar (10 mL) was transferred immediately to square Petri dishes and allowed to cool for 1 h. Control drugs used for each microorganism included kanamycin (50 μg) for S. aureus, and nitrofurantoin (25 μg) for MRSA. Following incubation at 37° C. for 18 h, zones of inhibition were measured. MICso values for compounds 1 and 4-8 were determined using a microbroth dilution assay outlined in the Clinical and Laboratory Standards Institute methods for susceptibility tests for bacteria that grow aerobically. Briefly, single bacterial colonies were used to inoculate 4 mL of Trypticase Soy broth (BD) for overnight growth and inoculum for each were diluted to 5×10^5 CFU/mL using the 0.5 McFarland standard. […] Plates were incubated at 37° C. overnight and read at absorbance 600 nm on a Molecular Devices plate reader. […]

[2] = 100-fold excess of compound over FtsZ

Chain of recombinant E. coli FtsZ (P0A9A6 whole entry): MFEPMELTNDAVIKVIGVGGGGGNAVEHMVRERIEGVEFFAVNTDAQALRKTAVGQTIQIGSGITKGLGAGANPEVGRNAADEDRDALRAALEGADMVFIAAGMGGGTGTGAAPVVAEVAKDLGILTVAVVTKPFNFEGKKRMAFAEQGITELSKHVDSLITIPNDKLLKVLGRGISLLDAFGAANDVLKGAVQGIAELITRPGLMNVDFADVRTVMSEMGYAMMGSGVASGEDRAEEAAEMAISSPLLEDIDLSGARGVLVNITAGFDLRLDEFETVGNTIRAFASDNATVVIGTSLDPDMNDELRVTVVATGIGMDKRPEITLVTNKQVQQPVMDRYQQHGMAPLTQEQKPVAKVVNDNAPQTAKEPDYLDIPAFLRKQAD

In the case of Oc1cc(O)c2c(c1)C/C(Cl)=C\Cc1cc(c(Cl)cc1O)Oc1c(O)cc(cc1O)C/C(Cl)=C\Cc1cc(c(Cl)cc1O)O2 [Compound 1, chrysophaentin 1], the “STD NMR combined enhancement, overlapped protons H-6′ and H-8” value (recombinant E. coli FtsZ; [2]) is reported as ~50%, the “STD NMR enhancement, proton H-3” value (recombinant E. coli FtsZ; [2]) is reported as 100% and the “STD NMR enhancement, proton H-3′” value (recombinant E. coli FtsZ; [2]) is reported as 98%. The “STD NMR enhancement, proton H-12” value (recombinant E. coli FtsZ; [2]) was 100%, the “STD NMR enhancement, proton H-14” value (recombinant E. coli FtsZ; [2]) was 100% and the “STD NMR enhancement, aromatic protons H-6 and H-6′” value (recombinant E. coli FtsZ; as restated with the docked model) was ~50%. For the same compound, the “potency relative to chrysophaentin 6” value [1] was 3-5 times.
